Data on 48 compounds can be found in ChEMBL document CHEMBL5614408, “Indole-core inhibitors of influenza a neuraminidase: iterative medicinal chemistry and molecular modeling” (Eur J Med Chem, 2024).

For series [1], the target named is Neuraminidase (Influenza A virus (A/Puerto Rico/8/1934(H1N1)), UniProt P03468). Description: Inhibition of Influenza A virus A/Puerto Rico/8/34 (H1N1) neuraminidase assessed as reduction in neuraminidase activity by chemiluminescence based assay.
Series [2] concerns MDCK. In words: (§1) Cytotoxicity against MDCK cells assessed as inhibition of cell growth incubated for 48 hrs by MTS assay. Conditions: dog, mdck, 48 h. In kind it is toxicity, cell-based, Canis lupus familiaris. (In general: Tetrazolium assays rely on reduction of a dye to a coloured formazan, in cell work by metabolically active cells.)
Series [3] has as its system Influenza A virus. In words: Antiviral activity against Influenza A virus A/Puerto Rico/8/34 (H1N1) infected in MDCK cells assessed as inhibition of viral infection preincubated with cells for 1 hrs followed by viral infection and measured after 48 hrs by hemagglutination assay. In kind it is functional, organism-based.
A short description of series [4]: Selectivity index, ratio of CC50 for cytotoxicity against MDCK cells to IC50 for antiviral activity against Influenza A virus A/Puerto Rico/8/34 (H1N1) infected in MDCK cells. Conditions: dog, read-out: Ratio CC50/IC50. In kind it is toxicity, cell-based.
The subject of series [5] is Influenza A virus. Description: Antiviral activity against influenza A virus A/California/04/2009 (H1N1) infected in female BALB/c mouse model assessed as inhibition of viral replication in lungs at 50 mg/kg, po pretreated for 4 hrs followed by twice daily compound administration 4 hrs post viral infection and measured on day 4 post infection. The series is classed as functional, organism-based. The settings on record: time 4.0 day.

For series [6], the system named is Influenza A virus. In words: Antiviral activity against influenza A virus A/California/04/2009 (H1N1) infected in female BALB/c mouse model assessed as survival rate at 50 mg/kg, po pretreated for 4 hrs followed by twice daily compound administration 4 hrs post viral infection and measured on day 11 post infection relative to control. In kind it is functional. The settings on record: 264 h, time 11 day.

The subject of series [7] is Influenza A virus. Description: Antiviral activity against influenza A virus A/California/04/2009 (H1N1) infected in female BALB/c mouse model assessed as reduction in body weight loss at 20 mg/kg, po pretreated for 4 hrs followed by twice daily compound administration 4 hrs post viral infection and measured on day 11 post infection. In kind it is functional, organism-based. The settings on record: time 11.0 day.

Series [8] in a line: as §1. The series is classed as toxicity, cell-based, Canis lupus familiaris. Conditions: dog, MDCK cells.
Series [9] concerns Influenza A virus. In words: Antiviral activity against influenza A virus A/California/04/2009 (H1N1) infected in female BALB/c mouse model assessed as survival rate at 20 mg/kg, po pretreated for 4 hrs followed by twice daily compound administration 4 hrs post viral infection and measured on day 11 post infection relative to control. The series is classed as functional. Conditions: 264 h, time 11 day.

The source made the active and inactive calls. No cut-off for these calls is given here.

Sequence of Neuraminidase (Influenza A virus (A/Puerto Rico/8/1934(H1N1)), UniProt P03468) (P03468 whole entry): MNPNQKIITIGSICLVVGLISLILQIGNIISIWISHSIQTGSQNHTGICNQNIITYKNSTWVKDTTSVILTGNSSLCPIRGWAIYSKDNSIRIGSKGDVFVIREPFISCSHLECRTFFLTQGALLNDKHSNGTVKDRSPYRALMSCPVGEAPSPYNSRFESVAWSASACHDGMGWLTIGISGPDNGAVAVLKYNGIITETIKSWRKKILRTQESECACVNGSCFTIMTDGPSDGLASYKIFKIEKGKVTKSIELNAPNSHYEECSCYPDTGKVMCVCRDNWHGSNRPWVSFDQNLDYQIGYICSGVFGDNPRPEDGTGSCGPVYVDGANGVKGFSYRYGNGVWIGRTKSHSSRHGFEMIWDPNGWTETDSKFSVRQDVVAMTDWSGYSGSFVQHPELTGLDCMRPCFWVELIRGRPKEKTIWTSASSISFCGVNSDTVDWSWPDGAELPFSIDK

Broadly, the IC50 is the concentration that inhibits the measured activity by half. Consider `CC(=O)N1/C(=C/Nc2ccccc2)C(=O)c2ccccc21`, for which the IC50 in [1] was determined as 0.37 µM.
Take `CCOC(=O)c1cccc(N/C=C2\C(=O)c3cccnc3N2C(C)=O)c1`: in series [1], the IC50 turned out to be 9.84 µM.
For `CCCCOc1ccc(N/C=C2\C(=O)c3ccccc3N2C(C)=O)cc1`, the 50% inhibitory concentration (IC50) in series [1] is 0.42 µM.
On to `CCOC(=O)c1cccc(N/C=C2\C(=O)c3cc(OC)ccc3N2C(C)=O)c1`, for which, in [1], the IC50 came to 1.33 µM.
Turning to `O=C1/C(=C\Nc2ccc(Cl)cc2)Nc2ccccc21`, in series [1], the IC50 is 1.85 µM.
Same read-out and setting: as for `CC(=O)N1/C(=C/Nc2ccncc2)C(=O)c2ccccc21`, the figure is 1.08 µM.
Consider `COc1cc(N/C=C2\C(=O)c3ccccc3N2C(C)=O)cc(OC)c1OC`, for which, in series [1], the IC50 came to 2.71 µM.
Take `O=C1/C(=C\Nc2ccccc2)Nc2ccccc21`: the IC50 in series [1] came to 5.36 µM.
Still for that read-out and setting: to `COc1ccc(N/C=C2\C(=O)c3cc(Cl)ccc3N2C(C)=O)cc1` belongs 5.43 µM; to `CC(=O)N1/C(=C/Nc2ccc(F)c(F)c2)C(=O)c2ccccc21`, 0.47 µM.
For the compound `CC(=O)N1/C(=C/Nc2cccc(Oc3ccccc3)c2)C(=O)c2ccccc21`, the IC50 in [1] is 0.5 µM.
As a reminder, the CC50 is the concentration giving 50% cytotoxicity. For `CCC(=O)N1/C(=C/Nc2cccc(F)c2)C(=O)c2ccccc21`, the values for the IC50 in [1] and in series [3] were 0.23 µM and 11.3 µM, respectively. Moreover, the half-maximal cytotoxic concentration (CC50) in series [2] came out at 95 µM. Further, the selectivity ratio in series [4] worked out at 8.
For `CC(=O)N1/C(=C/Nc2cccc(F)c2)C(=O)c2ccccc21`, the outcome in series [5] and in [7] was Active. Further, the results for the IC50 in series [1] and in [3] were 0.03 µM and 33.8 µM, respectively. For the same compound, in series [2], the CC50 came out at 1480 µM. Further, in series [6], the survival at 50 mg/kg worked out at 30%. In addition, in series [4], the selectivity ratio worked out at 44.
As to `CCC(=O)N1/C(=C/Nc2ccc(F)c(F)c2)C(=O)c2ccccc21`, the IC50 in [1] was 0.3 µM.
With `CC(=O)N1/C(=C/Nc2cccc(S(N)(=O)=O)c2)C(=O)c2ccccc21`, in series [1], the IC50 came out at 0.64 µM.
Regarding `CC(=O)N1/C(=C/Nc2cccc(OC(F)(F)F)c2)C(=O)c2ccccc21`, the outcome in [5] and in series [7] was Active. In addition, the IC50 in [1] was found to be 0.2 µM; in series [3], 3 µM. For the same compound, in series [2], the CC50 stood at 105 µM. In addition, the survival at 50 mg/kg in series [6] was 30%. In addition, in series [4], the selectivity ratio came out at 35.
As for `CC(=O)N1/C(=C/Nc2ccc(OC(F)(F)F)cc2)C(=O)c2ccccc21`, the IC50 in series [1] came out at 5.13 µM.
`CCOC(=O)c1cccc(N/C=C2\C(=O)c3ccccc3N2C(C)=O)c1`: in series [1], the IC50 amounted to 0.28 µM.
Regarding `CC(=O)N1/C(=C/Nc2ccc(Cl)cc2)C(=O)c2ccccc21`, the IC50 in series [1] was 1.39 µM.
Turning to `COc1ccc(N/C=C2\C(=O)c3ccccc3N2C(C)=O)cc1OC`, the IC50 in series [1] was determined as 25.2 µM.
Still for that read-out and setting: as for `CC(=O)N1/C(=C/Nc2ccc(F)cc2)C(=O)c2ccccc21`, the figure is 0.34 µM; as for `COc1ccc(N/C=C2\C(=O)c3cccnc3N2C(C)=O)cc1`, 2 µM.
Regarding `COc1ccc(N/C=C2\C(=O)c3cc(OC)ccc3N2C(C)=O)cc1`, in series [1], the IC50 was 1.7 µM.
Turning to `CC(=O)N1/C(=C/Nc2cc(F)c(F)c(F)c2)C(=O)c2ccccc21`, the IC50 in series [1] worked out at 1 µM.
Consider `CCOC(=O)c1cccc(N/C=C2\C(=O)c3cc(Cl)ccc3N2C(C)=O)c1`, for which the IC50 in series [1] came out at 2.03 µM.
As to `CC(=O)N1/C(=C/Nc2cccc(F)c2F)C(=O)c2ccccc21`, in series [1], the IC50 amounted to 0.95 µM.
On the same count and under the same terms, as for `CCC(=O)N1/C(=C/Nc2ccc(OC)cc2)C(=O)c2ccccc21`, the figure is 0.73 µM; as for `COc1ccccc1N/C=C1\C(=O)c2ccccc2N1C(C)=O`, 1.08 µM; as for `CC(=O)N1/C(=C/Nc2cccc(Cc3ccccc3)c2)C(=O)c2ccccc21`, 0.2 µM.
As to `CC(=O)N1/C(=C/Nc2ccc(Cc3ccccc3)cc2)C(=O)c2ccccc21`, the values for the IC50 in series [1] and in series [3] were 0.1 µM and 111 µM, respectively. In [2], the CC50 amounted to 1740 µM. Also, the selectivity ratio in series [4] was found to be 16.
Take `CC(=O)N1/C(=C/NCc2ccc(F)c(F)c2)C(=O)c2ccccc21`: the IC50 in series [1] is 11.1 µM.
Turning to `CC(=O)N1/C(=C/Nc2ccccc2C(F)(F)F)C(=O)c2ccccc21`, the IC50 in [1] was 0.58 µM.
Regarding `CCOc1ccc(N/C=C2\C(=O)c3ccccc3N2C(C)=O)cc1`, the 50% inhibitory concentration (IC50) in series [1] was found to be 0.62 µM.
Take `CC(=O)N1/C(=C/Nc2cccc(F)c2)C(=O)c2cccnc21`: in series [1], the IC50 was found to be 1.42 µM.
In the case of `CC(=O)N1/C(=C/Nc2cccc(C(F)(F)F)c2)C(=O)c2ccccc21`, the IC50 in series [1] was 0.96 µM.
Consider `COc1ccc(OC)c(N/C=C2\C(=O)c3ccccc3N2C(C)=O)c1`, for which, in series [1], the IC50 stood at 0.99 µM.
Consider `CC(=O)N1/C(=C/Nc2ccc(Nc3ccccc3)cc2)C(=O)c2ccccc21`, for which, in series [1], the IC50 worked out at 0.76 µM.
Regarding `COc1ccc(N/C=C2\C(=O)c3ccccc3N2C)cc1`, in series [1], the half-inhibitory concentration (IC50) stood at 1 µM.
As to `CC(=O)N1/C(=C/Nc2cccc(Oc3ccccc3)c2)C(=O)c2cccnc21`, in [8], the CC50 at 48 h was determined as 540 µM. In series [3], the IC50 turned out to be 120 µM. In addition, the selectivity ratio in [4] is 5.
For the compound `CCOC(=O)C1=C[C@@H](OC(CC)CC)[C@H](NC(C)=O)[C@@H](N)C1` [OSELTAMIVIR], the survival at 20 mg/kg in series [9] is 50%.
Consider `CC(=O)N1/C(=C/Nc2ccccn2)C(=O)c2ccccc21`, for which the IC50 in series [1] stood at 1.19 µM.
Same read-out and setting: to `COc1ccc(N/C=C2/Nc3ccccc3C2=O)cc1` belongs 3.01 µM; to `CC(=O)N1/C(=C/Nc2ccc(C(F)(F)F)cc2)C(=O)c2ccccc21`, 0.77 µM.
For the compound `COc1ccc(N/C=C2\C(=O)c3ccccc3N2C(C)=O)cc1`, the IC50 in series [1] was 0.1 µM; in [3], 12 µM. Further, the CC50 in [2] was determined as 1810 µM. In addition, in series [4], the selectivity ratio was 151.
With `CCC(=O)N1/C(=C/Nc2ccc(F)cc2)C(=O)c2ccccc21`, the IC50 in series [1] worked out at 0.43 µM.
Turning to `COc1cccc(N/C=C2\C(=O)c3ccccc3N2C(C)=O)c1`, the IC50 in series [1] was determined as 0.37 µM.
The same measure, in the same setting: as for `CC(=O)N1/C(=C/Nc2cc(F)cc(F)c2)C(=O)c2ccccc21`, the figure is 0.53 µM; as for `O=C1/C(=C\NCc2ccccc2)Nc2ccccc21`, 12.9 µM.
